These results are taken from patent US20060166316A1, “Phosphodiesterase 10a7 isoforms and methods of use” (Memory Pharmaceuticals Corporation, priority 2003, published 2006).

Experiment [1] concerns the target T1, mmPDE10A7 (Mus musculus, UniProt Q8CA95, M75I).
T1 construct: Full-length mmPDE10A7 cDNA cloned in the pENTR vector was recombined to pDEST™8; made in house; host or cells: Sf9 insect cells (baculovirus, pDEST8 / DH10BAC); used as crude cell lysate supernatant, dialysed for IMAP
T1 sequence (Q8CA95 with tags, fused parts or gaps M75I): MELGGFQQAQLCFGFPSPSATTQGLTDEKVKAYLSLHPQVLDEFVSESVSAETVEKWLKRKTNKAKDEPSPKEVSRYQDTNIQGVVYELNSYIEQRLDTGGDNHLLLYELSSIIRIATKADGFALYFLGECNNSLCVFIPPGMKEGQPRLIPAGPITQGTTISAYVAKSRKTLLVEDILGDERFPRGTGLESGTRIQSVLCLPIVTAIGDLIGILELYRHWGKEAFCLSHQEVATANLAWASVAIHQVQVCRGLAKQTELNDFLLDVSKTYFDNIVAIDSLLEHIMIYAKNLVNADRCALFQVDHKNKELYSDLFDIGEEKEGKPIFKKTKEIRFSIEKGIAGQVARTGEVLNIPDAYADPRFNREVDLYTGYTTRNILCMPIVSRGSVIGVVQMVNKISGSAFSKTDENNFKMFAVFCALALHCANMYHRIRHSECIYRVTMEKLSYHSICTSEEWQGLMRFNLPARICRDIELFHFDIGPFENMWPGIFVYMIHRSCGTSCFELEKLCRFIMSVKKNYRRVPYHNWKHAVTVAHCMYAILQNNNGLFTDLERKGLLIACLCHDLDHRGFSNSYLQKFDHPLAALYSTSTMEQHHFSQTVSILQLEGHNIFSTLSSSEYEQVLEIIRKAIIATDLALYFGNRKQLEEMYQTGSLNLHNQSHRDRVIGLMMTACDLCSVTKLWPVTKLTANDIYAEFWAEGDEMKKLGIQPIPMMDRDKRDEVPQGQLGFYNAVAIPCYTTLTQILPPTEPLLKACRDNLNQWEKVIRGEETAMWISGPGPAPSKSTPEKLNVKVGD
Kind of experiment: IMAP fluorescence polarization compound inhibition assay. The settings on record: recombinant mmPDE10A7 in sf9 cell lysate. The format is biochemical. The source says:
(§1) Full-length mmPDE10A7 cDNA cloned in the pENTR vector was recombined to pDEST™8 by clonase in DH5α competent bacteria (Invitrogen). DH10BAC, the competent bacteria containing baculovirus genome, was then transformed with the pDEST™8-mmPDE10A7. The white colonies were selected in the presence of gentamicin, kanamycin, tetracycline, Bluogal and IPTG and were confirmed by PCR. Log-phase sf9 cells were then transfected with recombinant baculovirus DNA by the method of Cellfectin in a 6-well plate. Forty-eight to seventy-two hours after the transfection, 0.5 ml medium from the transfected cell plate was added into a 175-cm^2 flask containing 2×10^7 sf9 cells for further amplification of the recombinant baculovirus. The sf9 cells were collected 48 hours after infection.
(§2) To prepare the cell lysate, the sf9 cells expressing mmPDE10A7 were resuspended in cell lysis buffer containing Tris/HCl (pH 7.5) 50 mM, NaCl 10 mM, EGTA 5 mM, EDTA (pH 8.0) 1 mM, DTT 1 mM, Protease Inhibitor Cocktail (Roche) 1 tablet per 50 ml buffer. The cell suspension was then homogenized with a Polytron (PT2100) at speed 20 for 20 seconds on ice and centrifuged at 10,000×g for 20 minutes. The supernatant was then collected and stored at −80° C.
Then, the cassette was placed in 1 liter of fresh assay buffer and continued to dialyze for 2 more hours at 4° C. After the second dialysis, the cell lysate was recovered with a clean syringe and stored at −80° C.
An IMAP Assay kit (Molecular Device) was used to assess enzyme properties of mmPDE10A7. […] Both the enzyme and the substrates were diluted in the following assay buffer: Tris/HCl (pH 8.0) 50 mM, MgCl2 5 mM, 2-mercaptoethanol 4 mM, BSA 0.33 mg/ml. After incubation, the reaction was stopped by adding 20 μl of diluted (400-fold) binding reagents and was incubated for an hour at room temperature. Then, the plates were counted in Analyst GT (Molecular Device) for fluorescence polarization. The data were analyzed with SoftMax Pro. The high end (EC80 to EC100) of the linear range was served as the working enzyme concentration for compound inhibition assays.
Then, the reaction was stopped by adding 20 μl of diluted binding reagents and counted in Analyst GT for fluorescence polarization.
(Fluorescence polarisation rises when a labelled molecule tumbles more slowly, as on binding a larger partner.)

The target of experiment [2] is T1, mmPDE10A7. Kind of experiment: Km determination with [3H]-cAMP/cAMP or [3H]-cGMP/cGMP. The format is biochemical. The settings on record: substrate of mmPDE10A7; 30 minutes at room temperature, pH 8.0.
From the text: as §1, §2

Setting [3] is: fluorescein labeled cAMP substrate.
Setting [4] is: fluorescein labeled cGMP substrate.

In the case of `Cc1[nH]c(=O)c(C#N)cc1-c1ccncc1` [milrinone], the IC50 entry on mmPDE10A7 [1] (setting [3]) and on mmPDE10A7 [1] (setting [4]) was “No inhibition” in each case.

As for `CCOC(=O)C1=C[C@]2(CC)CCCN3CCc4c(n1c1ccccc41)[C@@H]32` [vinpocetine], the concentration for half-maximal inhibition (IC50) result on mmPDE10A7 [1] (setting [3]) and on mmPDE10A7 [1] (setting [4]) was “No inhibition” in each case.

Regarding `COc1ccc(Cc2nccc3cc(OC)c(OC)cc23)cc1OC` [papaverine], the IC50 on mmPDE10A7 [1] (IC50, fluorescein labeled cAMP substrate) was 0.044 µM; at mmPDE10A7 [1] (IC50, fluorescein labeled cGMP substrate), 0.022 µM.

`Nc1nc2c(ncn2[C@@H]2O[C@@H]3COP(=O)(O)O[C@H]3[C@H]2O)c(=O)[nH]1` [cGMP, cyclic guanosine 5′ monophosphate]: on mmPDE10A7 [2], the Km stood at 3.7 µM.

As a reminder, the IC50 is the concentration at which inhibition is half-maximal. In general, Km refers to the substrate concentration at which the rate is half of its maximum.
